Experimental data: PMC7409368 (Free radical biology & medicine, 2018)

Molecular target: T1, Drosophila MSRA (Drosophila melanogaster, UniProt P08761, C232S/C246S)
T1 sequence (P08761 2-246 C232S/C246S): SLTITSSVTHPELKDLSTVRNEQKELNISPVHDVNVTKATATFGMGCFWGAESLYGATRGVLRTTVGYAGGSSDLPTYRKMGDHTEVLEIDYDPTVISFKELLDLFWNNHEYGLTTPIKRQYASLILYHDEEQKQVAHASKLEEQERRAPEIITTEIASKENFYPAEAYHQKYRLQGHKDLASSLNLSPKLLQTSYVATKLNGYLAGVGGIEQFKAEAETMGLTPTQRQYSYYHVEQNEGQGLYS
Test: intact protein mass spectrometry after incubation with MetO
Assay type: biochemical
Conditions: no dithiothreitol; oxidation of active site cysteine

C[S+]([O-])CC[C@H](N)C(=O)O (stereo partly drawn) [MetO, L-Methionine Sulfoxide]
intact protein mass spectrometry after incubation with MetO: when the C232S/C246S mutant was incubated with MetO, we observed that the mass
